Patent publication US7763446B2, “Chimeric DNA-binding proteins” (Massachusetts Institute of Technology, priority 1994, dated 2010)

Tests used:
[1] = tested on: ZFHD1-FKBPx3 with FKBPx3-VP16 or FKBPx3-p65, pZHWTx8SVSEAP reporter; test: FK1012-dependent SEAP transcriptional activation in 293 cells; format: cell-based; details: 24 hour incubation
Description: 293 cells were grown in D-MEM (Gibco BRL) supplemented with 10% Bovine Calf Serum. Cells in 35 mm dishes (2.5×10^5 cells/dish) were transiently transfected with use of calcium phosphate precipitation (Ausubel et. al., 1994). Each dish received 375 ng pZHWTx8SVSEAP; 12 ng pCGNNZFHD1-FKBPx3 and 25 ng pCGNNFKBPx3-VP16 or pCGNNFKBPx3-p65. Following transfection, 2 ml fresh media was added and supplemented with FK1012 to the desired concentration. After a 24 hour incubation […] aliquot of media was removed and assayed for SEAP activity as described (Spencer et. al., 1993).

[2] = hGH clearance after bolus administration; format: in vivo; details: i.p. or i.v.
Text: Therefore, the observed hGH secretion in this example appears to be a sustained phenomenon.

[3] = tested on: ZFHD1-FKBPx3 and FRB-p65 fusion proteins, hGH reporter linked to ZFHD1 binding sites; test: Rapamycin-dependent hGH expression in transfected HT1080 cell culture; format: cell-based; details: HT1080 cells with three constructs
Description: Using the approach described in Example 6, constructs were prepared encoding the ZFHD1-FKBPx3 fusion protein, a second fusion protein containing the FKBP:rapaymcin binding (“FRB”) region of FRAP linked to the p65 activation domain, and a reporter cassette containing a gene encoding human growth hormone linked to multiple ZFHD1 binding sites. The natural product, rapamycin, forms a ternary complex with FKBP12 and FRAP. Similarly, rapamycin is capable of binding to one or more of the FKBP domains and FRAP FRB domains of the fusion proteins.

[4] = tested on: ZFHD1-FKBPx3 and FRB-p65 fusion proteins, hGH target gene in implanted cells; test: Rapamycin-dependent serum hGH in nu/nu mice implanted with transfected HT1080 cells; format: in vivo; details: rapamycin i.v. 10-10,000 μg/kg, serum 17 hours after administration
Description: Human cells (2×10^6) transfected with plasmids encoding transcription factors ZFHD1-FKBPx3 and FRB-p65 and a target gene directing the expression of human growth hormone (hGH) were injected into the skeletal muscles of nu/nu mice. Mice were treated with the indicated concentration of rapamycin by tail vein injection. After 17 hours, serum hGH levels were determined by ELISA. Each point represents X±SEM (n=at least 5 per point). Control animals received either engineered cells without drug or drug (10^3 or 10^4 μg/kg) without engineered cells.
2×10^6 cells from the transfected HT1080 culture were administered to nu/nu mice by intramuscular injection. Following cell implantation, rapamycin was administered i.v. over a range of doses (from 10-10,000 μg/kg). Serum samples were collected from the mice 17 hours after rapamycin administration. Control groups consisted of mice that received no cells but 1.0 mg/kg rapamycin (i.v.) as well as mice that received the cells but no rapamycin.
Neither control group produced measurable hGH. The limit of detection of the hGH assay is 0.0125 ng/ml.

Molecule: CO[C@H]1C[C@@H](C)C/C(C)=C/[C@@H](CCOC(=O)NCc2ccc(CNC(=O)OCC[C@@H]3/C=C(\C)C[C@H](C)C[C@H](OC)C4O[C@@](O)(C(=O)C(=O)N5CCCC[C@H]5C(=O)OC(/C(C)=C/[C@@H]5CC[C@@H](O)[C@H](OC)C5)[C@H](C)[C@@H](O)CC3=O)[C@H](C)C[C@H]4OC)cc2)C(=O)C[C@H](O)[C@@H](C)C(/C(C)=C/[C@@H]2CC[C@@H](O)[C@H](OC)C2)OC(=O)[C@@H]2CCCCN2C(=O)C(=O)[C@]2(O)OC1[C@H](OC)C[C@H]2C (some centres unmarked) [FK1012]
- FK1012 concentration at peak activation [1]: 100 nM

Molecule: hGH: human growth hormone, reporter gene product; bolus clearance stated
- hGH clearance half-life [2]: less than 2 minutes
- time to undetectable hGH levels [2]: ≤ 30 min

Molecule: rapamycin
- rapamycin-dependent expression of the hGH gene in cell culture [3]: rapamycin-dependent expression of the hGH gene
- expression of hGH (circulating hGH) [4]: Dose-responsive expression of hGH
